One experiment has as its target T1, STAT3 (Homo sapiens, UniProt P40763).
T1 construct: endogenous in cells; host or cells: LNCaP (human prostate cancer) stably carrying pSTAT3-TA-luc reporter plasmid
Briefly: STAT3 activation inhibition assay (reporter gene assay, LNcaP stable cell line, IL-6 stimulated). Format: cell-based. Conditions: LNcaP stable cell line [plasmid STAT3-TA-luc], IL-6 10 ng/mL, 48 hours, luciferase activity; read-out: IC50 (μM) pSTAT3. On the procedure:
Cancer cell lines used for evaluating the compounds of the Examples were purchased from ATCC (American Type Culture Collection) or KCLB (Korean Cell Line Bank), and cultured according to the vendor's recommendation. The human prostate cancer cell line stably expressing the STAT3 promoter (LNcaP stable cell line [plasmid STAT3-TA-luc])—which was prepared to evaluate the inhibitory effect of the compounds of the Examples against dimerization of STAT3—was cultured in RPMI1640 (Cat no. 11875, Gibco), 10% fetal bovine serum (Cat no. SH30071.03, Hyclone) and 150 μg/mL G418 solution (Cat no. 04 727 894 001, Roche).
The reporter gene assay of LNcap stable cell line was carried out by the use of RPMI 1640 medium containing 3% DCC-FBS (without G-418). The cell line was dispensed into two (2) white 96-well plates at 30,000 cells/well/50 μL. The cell line was incubated for 24 hours under the condition of 37° C. and 5% CO2, and then the Example compounds of 50 mM DMSO stock were diluted to various concentrations and treated to two (2) white 96-well plates containing cells. Then, IL-6 was treated to a final concentration of 10 ng/mL. After the treatment of Example compounds and IL-6, the cells were cultured for 48 hours under the condition of 37° C. and 5% CO2. After 48 hours, the 96-well plates were observed under a microscope to record the presence or absence of drug precipitation and specificities, and the 96-well plates were kept at room temperature for 30 minutes. Then, in the case of the first 96-well plate, the culture medium on the plate was removed to measure the luciferase activity, and treated with passive lysis buffer at 20 µL/well and shaken for 30 minutes. The luciferase activity was measured on microLUMA LB96P (BERTHOLD) or Centro XS LB 960 (BERTHOLD) instrument using Luciferase assay system (Cat No. E1501, Promega Corporation). In the case of the second 96-well plate, 20 μL of Glo-mix solution was added to measure cytotoxicity by the compounds of the Examples, and the plate was well shaken for 10 minutes and analyzed on microLUMA LB96P (BERTHOLD) instrument using Glo-vial protocol. As a negative control, a 96 well-plate in which culture medium was added but cells were not plated was used. As a positive control, a 96 well-plate in which cells were plated and 0.1% DMSO and culture medium containing stimulation were added was used.
The results of evaluating the inhibitory effects of the compounds of the Examples against dimerization of STAT3 and STAT1 via STAT3 and STAT1 reporter gene assay are represented in Table 1.

Experiment [1] has as its system prostate cancer cell line (LNCap). The experiment in a line: Cell growth inhibition assay (Celltiter Glo). The format is cell-based. Conditions: Homo sapiens, LNCap cells, 120 hours incubation. On the procedure:
Cancer cell inhibitory effects by the compounds of the Examples were evaluated as follows. The prostate cancer cell line (LNCap) used was cultured under the condition according to the vendor's recommendation. LNCap was dispensed into a 96-well plate at 10,000 cells/well. After incubation under the condition of 37° C. and 5% CO2 for 24 hours, the Example compounds of 50 mM DMSO stock were diluted to various concentrations and treated to the 96-well plate containing cells. After treatment of the Example compounds, LNCap cells were incubated in an incubator (37° C., 5% CO2) for 120 hours. After each incubation time, the 96-well plate was observed under a microscope to record the presence or absence of drug precipitation and specificities, and the 96-well plate was kept at room temperature for 30 minutes. Then, after addition of 20 μL of Celltiter Glo solution, the 96-well plate was well shaken for 30 minutes. The growth inhibitory activity was measured on microLUMA LB96P (BERTHOLD) instrument using Glo-vial protocol. As a negative control, a 96 well-plate in which culture medium was added but cells were not plated was used. As a positive control, a 96 well-plate in which cells were plated and 0.1% DMSO instead of drugs was added was used. The results of growth inhibitory effects of the Example compounds on prostate cancer cell line are represented in Table 2.
On the technique in general: In ATP-based viability assays light output follows the ATP content of the culture.

T1 sequence (P40763 whole entry): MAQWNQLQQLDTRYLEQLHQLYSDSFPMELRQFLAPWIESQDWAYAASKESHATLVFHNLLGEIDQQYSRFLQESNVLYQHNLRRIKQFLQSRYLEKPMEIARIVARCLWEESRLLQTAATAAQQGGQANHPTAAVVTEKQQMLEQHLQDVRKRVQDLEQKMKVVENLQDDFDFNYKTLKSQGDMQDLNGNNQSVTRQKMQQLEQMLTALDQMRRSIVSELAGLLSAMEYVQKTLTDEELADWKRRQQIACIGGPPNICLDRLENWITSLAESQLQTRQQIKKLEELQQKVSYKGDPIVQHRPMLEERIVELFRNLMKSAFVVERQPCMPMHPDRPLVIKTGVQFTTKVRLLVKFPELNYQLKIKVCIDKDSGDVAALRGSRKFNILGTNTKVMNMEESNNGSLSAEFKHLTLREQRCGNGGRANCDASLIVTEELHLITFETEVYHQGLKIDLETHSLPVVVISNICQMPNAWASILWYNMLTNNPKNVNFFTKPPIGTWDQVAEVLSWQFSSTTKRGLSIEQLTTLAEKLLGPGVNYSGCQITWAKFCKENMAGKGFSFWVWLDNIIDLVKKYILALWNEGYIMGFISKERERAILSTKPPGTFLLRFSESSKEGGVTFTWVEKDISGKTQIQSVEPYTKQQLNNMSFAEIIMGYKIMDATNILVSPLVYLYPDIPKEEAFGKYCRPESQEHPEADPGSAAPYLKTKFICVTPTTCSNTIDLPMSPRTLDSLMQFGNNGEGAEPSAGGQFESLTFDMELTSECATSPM

Regarding `CS(=O)(=O)Nc1ccc(CCNc2ncnc3ccc(-c4ccc(Cl)cc4Cl)cc23)cc1` [Example 56, N-(4-(2-((6-(2,4-dichlorophenyl)quinazolin-4-yl)amino)ethyl)phenyl)methanesulfonamide], the IC50 (as a rule, the point on the concentration scale where inhibition reaches its midpoint) worked out at 6.6 µM on STAT3 and 13.9 µM in experiment [1].

As to `CS(=O)(=O)Nc1ccc(CCNc2ncnc3sccc23)cc1` [Example 68, N-(4-(2-(thieno[2,3-d]pyrimidin-4-ylamino)ethyl)phenyl)methanesulfonamide], the IC50 was determined as 0.076 µM on STAT3 and 0.27 µM in experiment [1].

Take `COc1cccc2c(NCCc3ccc([N+](=O)[O-])cc3)cc(Cl)nc12` [Example 10, 2-chloro-8-methoxy-N-(4-nitrophenethyl)quinolin-4-amine]: the 50% inhibitory concentration (IC50) amounted to 3.9 µM on STAT3 and 2.6 µM in experiment [1].

Take `O=[N+]([O-])c1ccc(CCNc2nc(Cl)nc3ncccc23)cc1` [Example 67, 2-chloro-N-(4-nitrophenethyl)pyrido[2,3-d]pyrimidin-4-amine]: the results for the IC50 (at STAT3; in experiment [1]) were 4.4 µM and 3.7 µM, respectively.

For the molecule `COc1ccc2nc(Cl)cc(NCCc3ccc([N+](=O)[O-])cc3)c2c1` [Example 9, 2-chloro-6-methoxy-N-(4-nitrophenethyl)quinolin-4-amine], the IC50 at STAT3 was determined as 3 µM; in experiment [1], 7.7 µM.

On to `O=C(c1ccccc1)c1ccc2nc(Cl)cc(NCCc3ccc([N+](=O)[O-])cc3)c2c1` [Example 34, (2-chloro-4-((4-nitrophenethyl)amino)quinolin-6-yl)(phenyl)methanone], for which the values for the IC50 (at STAT3; in experiment [1]) were 6.9 µM and 15.7 µM, respectively.

Turning to `COc1cc(NCCc2ccc(NS(C)(=O)=O)cc2)c2ccccc2n1` [Example 76, N-(4-(2-((2-methoxyquinolin-4-yl)amino)ethyl)phenyl)methanesulfonamide], the results for the IC50 (at STAT3; in experiment [1]) were 1.2 µM and 3.9 µM, respectively.

On to `CS(=O)(=O)Nc1ccc(CCNc2ccnc3ccc(F)cc23)cc1` [Example 21, N-(4-(2-((6-fluoroquinolin-4-yl)amino)ethyl)phenyl)methanesulfonamide], for which the IC50 at STAT3 came out at 2.3 µM; in experiment [1], 2.4 µM.

`CS(=O)(=O)Nc1ccc(CCNc2ncnc3ccc(F)cc23)cc1` [Example 64, N-(4-(2-((6-fluoroquinazolin-4-yl)amino)ethyl)phenyl)methanesulfonamide]: the results for the IC50 (at STAT3; in experiment [1]) were 0.063 µM and 0.23 µM, respectively.

Turning to `CS(=O)(=O)Nc1ccc(CCNc2cc(Cl)nc3ccc(F)cc23)cc1` [Example 22, N-(4-(2-((2-chloro-6-fluoroquinolin-4-yl)amino)ethyl)phenyl)methanesulfonamide], the IC50 is 0.1 µM at STAT3 and 0.074 µM in experiment [1].

In the case of `O=[N+]([O-])c1ccc(CCNc2ncnc3ccc(-c4ccc(Cl)cc4Cl)cc23)cc1` [Example 54, 6-(2,4-dichlorophenyl)-N-(4-nitrophenethyl)quinazolin-4-amine], the figures for the IC50 (at STAT3; in experiment [1]) were 11 µM and 14.1 µM, respectively.

For `O=C(Cc1ccc([N+](=O)[O-])cc1)Nc1ncnc2ccccc12` [Example 65, 2-(4-nitrophenyl)-N-(quinazolin-4-yl)acetamide], the IC50 (at STAT3; in experiment [1]) was greater than 50 µM each time.

Regarding `O=S(=O)(Nc1ccc(CCNc2ncnc3ccccc23)cc1)C(F)(F)F` [Example 60, 1,1,1-trifluoro-N-(4-(2-(quinazolin-4-ylamino)ethyl)phenyl)methanesulfonamide], the IC50 at STAT3 is 14 µM; in experiment [1] it was 29.5 µM.

Regarding `Cc1cc(NCCc2ccc([N+](=O)[O-])cc2)c2ccccc2n1` [Example 5, 2-methyl-N-(4-nitrophenethyl)quinolin-4-amine], the figures for the IC50 (at STAT3; in experiment [1]) were 38.1 µM and 47.3 µM, respectively.

`O=C(c1ccc2nc(Cl)cc(NCCc3ccc([N+](=O)[O-])cc3)c2c1)N1CCOCC1` [Example 42, (2-chloro-4-((4-nitrophenethyl)amino)quinolin-6-yl)(morpholino)methanone]: the IC50 (on STAT3; in experiment [1]) was greater than 50 µM in each case.

The record behind these values is US12404249B2, “Heterocyclic derivatives and use thereof” (C&C RESEARCH LABORATORIES, priority 2018, dated 2025).
